Each block holds one compound with its values, some of them ahead of it.
Assays:
Type in all cases: physicochemical, human
[1] = GC/MS of blood plasma sample: number of times of freezing and thawing (Table C); conditions: for Rate of increase or decrease: detection intensity relative to 1 at 2 times; for Increase or decrease: detection intensity
Description: (§1) At room temperature, 5 mL of blood from a healthy subject was taken into a blood-collecting vessel containing EDTA, and the blood-collecting vessel was inverted for mixing, then cooled, and allowed to stand at 4° C. Here, in order to investigate how the detection intensity of molecules contained in the sample was affected in a case where the time to cooling was set to 5 minutes or more as compared to that in a case where the time to cooling was set to 1 minute or less, preparations were performed under both the former condition and the latter condition. After standing, the blood sample was subjected to centrifugation under a condition of 4° C., 3000 rpm, and 15 minutes. […] After centrifugation, the blood-collecting vessel was left to stand at room temperature for 30 minutes, and the blood plasma was isolated during this 30 minutes. The obtained blood plasma sample was frozen and stored. Here, in order to investigate how the detection intensity of molecules contained in the sample was affected in cases where freezing and thawing was performed 4 times, 6 times, and 10 times after freezing as compared to that in a case where freezing and thawing was performed 2 times after freezing, freezing and thawing was performed under the respective conditions of 2, 4, 6, and 10 times.
(§2) Frozen blood plasma samples and serum samples were subjected to GC/MS or LC/MS. In GC/MS, the blood plasma samples and serum samples were subjected to methoxymation and trimethylsilylation and then introduced to GC-MS.
(§3) GC/MS was conducted using GCMS·TQ8040 (Shimadzu Corporation) that was a GC·MS equipped with AOC·20i (Shimadzu Corporation) as an autosampler.
(§4) Column: BPX5 (inner diameter of 0.25 mm, length of 30 m, and film thickness of 0.25 μm) (SGE)
(§5) Column temperature: maintained at 60° C. for 2 minutes, then raised at 15° C./min, and maintained at 330° C. for 3 minutes.
(§6) Inlet temperature: 250° C.
(§7) Carrier gas control mode: constant linear velocity of 39.0 cm/sec
(§8) Sample introduction method: split (split ratio of 30:1) Injection volume: 1 μL
(§9) Ionization method: electron ionization
(§10) Ionization current: 60 μA
(§11) Interface temperature: 280° C.
(§12) Ion source temperature: 200° C.
(§13) Mode: multiple reaction monitoring (MRM)
The rate of increase or decrease in Table C is the value of detection intensity relative to 1 that is the detection intensity in a case where the number of times of freezing and thawing is set to 2 times.

[2] = GC/MS of serum sample: time from blood collection to centrifugation (Table G); conditions: blood collection to centrifugation; for Rate of increase or decrease: detection intensity relative to 1 at 15 minutes; for Increase or decrease: detection intensity
Description: (§14) After standing, the blood sample was subjected to centrifugation under a condition of room temperature, 3500 rpm, and 5 minutes. […] After centrifugation, the blood-collecting vessel was left to stand at room temperature, and the serum was isolated during this time. Here, in order to investigate how the detection intensity of molecules contained in the sample was affected in cases where the time during which the blood-collecting vessel was left at room temperature was set to 1 hour and 6 hours as compared to that in a case where the time was set to 30 minutes, preparations were performed under the respective conditions of 30 minutes, 1 hour, and 6 hours. The obtained serum sample was frozen and stored. Here, in order to investigate how the detection intensity of molecules contained in the sample was affected in cases where freezing and thawing was performed 4 times, 6 times, and 10 times after freezing as compared to that in a case where freezing and thawing was performed 2 times after freezing, freezing and thawing was performed under the respective conditions of 2, 4, 6, and 10 times.
as §2, §3, §4, §5, §6, §7, §8, §9, §10, §11, §12, §13
The rate of increase or decrease in Table G is the value of detection intensity relative to 1 that is the detection intensity in a case where the time from blood collection to centrifugation is set to 15 minutes.

[3] = GC/MS of serum sample: time from centrifugation to isolation (Table H); set-up: key to Rate of increase or decrease / Rate of increase or decrease (first value, increase): detection intensity relative to 1 at 30 min centrifugation-to-isolation; conditions: for Rate of increase or decrease: detection intensity relative to 1 at 30 minutes; for Increase or decrease: detection intensity
Description: as §14, §2, §3, §4, §5, §6, §7, §8, §9, §10, §11, §12, §13
The rate of increase or decrease in Table H is the value of detection intensity relative to 1 that is the detection intensity in a case where the time from centrifugation to isolation is set to 30 minutes.

[4] = GC/MS of blood plasma sample: time from blood collection to centrifugation (Table A); conditions: blood collection to centrifugation; for Rate of increase or decrease: detection intensity relative to 1 at 15 minutes; for Increase or decrease: detection intensity
Description: as §1, §2, §3, §4, §5, §6, §7, §8, §9, §10, §11, §12, §13
The rate of increase or decrease in Table A is the value of detection intensity relative to 1 that is the detection intensity in a case where the time from blood collection to centrifugation is set to 15 minutes.

[5] = LC/MS of blood plasma sample: time from blood collection to centrifugation (Table D); conditions: for Increase or decrease: detection intensity, blood collection to centrifugation, after 12 hours vs 15 minutes; for Rate of increase or decrease (second value, decrease) / Rate of increase or decrease (first value, increase): different from individual to individual, relative to 1 at 15 minutes, collection to centrifugation, after 12 hours; for Rate of increase or decrease (second value, decrease): individuals with decrease; for Rate of increase or decrease (first value, increase): individuals with increase
Description: as §1, §2
(§15) Analysis column: Discovery HS F5-3 (inner diameter of 2.1 mm, length of 150 mm, film thickness of 3 μm) (Sigma-Aldrich)
(§16) Column temperature: 40° C.
(§17) (A) 0.1% formic acid (dissolved in water)
(§18) (B) 0.1% formic acid (dissolved in acetonitrile)
(§19) Flow velocity: 0.25 mL/min
(§20) Ionization method: electrospray
(§21) Temperature: • Desolvation Line (DL) temperature: 250° C. • Heat block temperature: 400° C. • Interface temperature: 300° C.
(§22) Gas flow rate: • Nebulizer gas flow rate: 3.0 L/min • Drying gas flow rate: 10.0 L/min • Heating gas flow rate: 10.0 L/min
as §13
The rate of increase or decrease in Table D is the value of detection intensity relative to 1 that is the detection intensity in a case where the time from blood collection to centrifugation is set to 15 minutes.

[6] = LC/MS of serum sample: number of times of freezing and thawing (Table M); set-up: key to Rate of increase or decrease: detection intensity relative to 1 at 2 freeze-thaw cycles; conditions: for Rate of increase or decrease: 6 times of freezing and thawing; for Number of times when compound is affected / Increase or decrease: serum sample, LC/MS; for Number of times when compound is affected: detection intensity changed by 30% or more vs 2 times of freezing and thawing; for Increase or decrease: detection intensity vs 2 times of freezing and thawing
Description: as §14, §2, §15, §16, §17, §18, §19, §20, §21, §22, §13
The rate of increase or decrease in Table M is the value of detection intensity relative to 1 that is the detection intensity in a case where the number of times of freezing and thawing is set to 2 times.

[7] = GC/MS of serum sample: number of times of freezing and thawing (Table I); set-up: key to Rate of increase or decrease / Rate of increase or decrease (first value, increase): detection intensity relative to 2 freeze-thaw cycles = 1; conditions: GC/MS; for Rate of increase or decrease: detection intensity relative to 1 at 2 times, freezing and thawing 10 times
Description: as §14, §2, §3, §4, §5, §6, §7, §8, §9, §10, §11, §12, §13
The rate of increase or decrease in Table I is the value of detection intensity relative to 1 that is the detection intensity in a case where the number of times of freezing and thawing is set to 2 times.

[8] = detection intensity, serum, freezing and thawing 10 times vs 2 times

- Rate of increase or decrease ([1]; freezing and thawing 6 times): 0.68
- Increase or decrease ([1]; freezing and thawing 6 times vs 2 times): Decrease
- Rate of increase or decrease ([2]; after 8 hours): 0.66
- Increase or decrease ([2]; after 8 hours vs 15 minutes): Decrease
SMILES: O[C@H]1[C@H](O)[C@@H](O)[C@H](O)[C@@H](O)[C@@H]1O [Scyllo-inositol]

- Rate of increase or decrease ([3]; after 1 hour): 0.64
- Increase or decrease ([3]; after 1 hour vs 30 minutes): Decrease
- Rate of increase or decrease ([4]; after 12 hours): 1.33
- Increase or decrease ([4]; after 12 hours vs 15 minutes): Increase
SMILES: O=C(O)C(O)Cc1ccc(O)cc1 (stereo not drawn) [4-Hydroxyphenyllactic acid]

- Rate of increase or decrease ([3]; after 1 hour): 0.04
- Increase or decrease ([3]; after 1 hour vs 30 minutes): Decrease
- Rate of increase or decrease ([2]; after 4 hours): 1.52
- Increase or decrease ([2]; after 4 hours vs 15 minutes): Increase
- Rate of increase or decrease ([4]; after 4 hours): 0.41
- Increase or decrease ([4]; after 4 hours vs 15 minutes): Decrease
SMILES: O=C(O)C=C(CC(=O)O)C(=O)O [Aconitic acid]

- Rate of increase or decrease ([7]; serum): 1.47
- Increase or decrease [7, 8]: Increase
- Rate of increase or decrease ([4]; after 12 hours): 1.44
- Increase or decrease ([4]; after 12 hours vs 15 minutes): Increase
SMILES: CC(CN)C(=O)O (stereo not drawn) [3-Aminoisobutyric acid]

The next lines start with the compound.

SMILES: NCCc1c[nH]c2ccccc12 [Tryptamine]
- Rate of increase or decrease ([1]; freezing and thawing 10 times): 0.69
- Increase or decrease ([1]; freezing and thawing 10 times vs 2 times): Decrease

SMILES: N[C@@H](Cc1c[nH]c2ccccc12)C(=O)O [Tryptophan]
- Increase or decrease [5]: Different from individual
- Rate of increase or decrease (second value, decrease) [5]: 0.66
- Rate of increase or decrease (first value, increase) [5]: 1.62
- Rate of increase or decrease ([6]; detection intensity relative to 1 at 2 times): 0.66
- Number of times when compound is affected [6]: 6 times
- Increase or decrease [6]: Decrease

SMILES: CCCCCCCCCCCCCC(=O)O [Myristic acid]
- Rate of increase or decrease ([2]; after 8 hours): 1.30
- Increase or decrease ([2]; after 8 hours vs 15 minutes): Decrease
- Rate of increase or decrease ([4]; after 12 hours): 1.55
- Increase or decrease ([4]; after 12 hours vs 15 minutes): Increase

SMILES: CCC(N)C(=O)O (stereo not drawn) [2-Aminobutyric acid]
- Rate of increase or decrease ([7]; serum): 2.63
- Increase or decrease [7, 8]: Increase
- Rate of increase or decrease ([3]; after 6 hours): 1.60
- Increase or decrease ([3]; after 6 hours vs 30 minutes): Increase
- Increase or decrease [5]: Different from individual
- Rate of increase or decrease (second value, decrease) [5]: 0.65
- Rate of increase or decrease (first value, increase) [5]: 1.53
- Rate of increase or decrease ([6]; relative to 1 at 2 times, different from individual to individual, first value (increase)): 1.31
- Rate of increase or decrease ([6]; relative to 1 at 2 times, different from individual to individual, second value (decrease)): 0.61
- Number of times when compound is affected [6]: 6 times
- Increase or decrease [6]: Different from individual

SMILES: CCCCCC(=O)O [Cabroic acid]
- Rate of increase or decrease ([1]; freezing and thawing 4 times): 1.58
- Increase or decrease ([1]; freezing and thawing 4 times vs 2 times): Increase
- Number of times when compound is affected ([7]; serum sample, detection intensity changed by 30% or more vs 2 times of freezing and thawing): 10 times
- Increase or decrease ([7]; serum sample, detection intensity vs 2 times of freezing and thawing): Increase

From patent US20220146526A1, “METHOD FOR EVALUATING SAMPLE, ANALYSIS METHOD, METHOD FOR DETECTING DEGRADED SAMPLE, MARKER FOR DETECTING DEGRADED BLOOD PLASMA SAMPLE, AND MARKER FOR DETECTING DEGRADED SERUM SAMPLE” (SHIMADZU CORPORATION, priority 2019, published 2022)
